According to patent publication US20070128217A1 (priority 2003, published 2007):

Key:
[1] = test system: rabbit serum obtained by immunizing a rabbit with the SARS-CoV strain Frankfurt 1; format: binding; design: Binding of a rabbit serum to linear peptides / Binding of a rabbit serum to looped peptides / Rabbit serum linear peptides / Rabbit serum looped peptides / Binding of a rabbit serum to linear peptides of protein N of SARS-CoV Urbani (Rabbit serum linear peptides) / Binding of a rabbit serum to looped/cyclic peptides of protein N of SARS-CoV Urbani (Rabbit serum looped peptides): unit not given here
[2] = test system: control sera (pooled serum of ten healthy LUMC hospital workers; commercial negative donor pooled serum from the Dutch bloodbank); format: binding, human
[3] = test system: antibodies in sera from SARS patients (sera 1a, 1b, 2, 6, 37, 62, London, SARS-yellow, SARS-green); format: binding, human

Sequence: VVFLLVTLAILTALR
- Binding of a rabbit serum to linear peptides [1]: 0.5
- Binding of a rabbit serum to looped peptides [1]: 0.2
- Binding of Control Serum Blood-Bank to Looped peptides [2]: 0.6
- Binding of Control serum Blood-bank to linear peptides [2]: 0.6
- Binding of Control serum LUMC to linear peptides [2]: 0.4
- Binding of Control serum LUMC to looped peptides [2]: 0.6
- Binding of serum 1a to linear peptides of protein E of SARS-CoV Urbani [3]: 0.7
- Binding of serum 1a to looped/cyclic peptides of protein E of SARS-CoV Urbani [3]: 0.5
- Binding of serum 1b to linear peptides of protein E of SARS-CoV Urbani [3]: 0.4
- Binding of serum 1b to looped/cyclic peptides of protein E of SARS-CoV Urbani [3]: 0.3
- Binding of serum 2 to linear peptides of protein E of SARS-CoV Urbani [3]: 0.4
- Binding of serum 2 to looped/cyclic peptides of protein E of SARS-CoV Urbani [3]: 0.5
- Binding of serum 6 to linear peptides of protein E of SARS-CoV Urbani [3]: 0.6
- Binding of serum 6 to looped/cyclic peptides of protein E of SARS-CoV Urbani [3]: 0.5
- Binding of serum 37 to linear peptides of protein E of SARS-CoV Urbani [3]: 0.6
- Binding of serum 37 to looped/cyclic peptides of protein E of SARS-CoV Urbani [3]: 0.4
- Binding of serum 62 to linear peptides of protein E of SARS-CoV Urbani [3]: 0.6
- Binding of serum 62 to looped/cyclic peptides of protein E of SARS-CoV Urbani [3]: 0.7
- Binding of serum London to linear peptides of protein E of SARS-CoV Urbani [3]: 0.5
- Binding of serum London to looped/cyclic peptides of protein E of SARS-CoV Urbani [3]: 0.5
- Binding of serum SARS-green to linear peptides of protein E of SARS-CoV Urbani [3]: 0.5
- Binding of serum SARS-green to looped/cyclic peptides of protein E of SARS-CoV Urbani [3]: 0.2
- Binding of serum SARS-yellow to linear peptides of protein E of SARS-CoV Urbani [3]: 0.1
- Binding of serum SARS-yellow to looped/cyclic peptides of protein E of SARS-CoV Urbani [3]: 0.5
